Results: patent US12357645B2, “Drug combination for treatment of gastric cancer” (priority 2023, dated 2025)

System: patients with advanced gastric cancer (AGC)
Experiment: Phase 1 study of minnelide prodrug alone or with paclitaxel in advanced gastric cancer (NCT 05566834): safety, DLT, MTD, adverse events

With `CC(C)[C@]12O[C@H]1[C@@H]1O[C@]13[C@]1(O[C@H]1C[C@H]1C4=C(CC[C@@]13C)C(=O)OC4)[C@@H]2OCOP(=O)([O-])[O-].[Na+].[Na+]` [minnelide prodrug, disodium; [(1S,2S,4S,5S,7S,8R,9R,11S, 13S)-1-methyl-17-oxo-7-propan-2-yl-3,6,10,16-tetraoxaheptacyclo [11.7.0.0^2,4.0^2,9.0^5,7.0^9,11.0^14,18]icos-14 (18)-en-8-yl]oxymethyl phosphate] the “Minnelide-related AE Neutropenia, Any” value (Total Regimens A-C, n = 36) was 11 (30.5) n (%), the “Minnelide-related AE Neutropenia, ≥Gr 3” value (Total Regimens A-C, n = 36) was 7 (19.4) n (%) and the “Minnelide-related AE Overall, Any” value (Total Regimens A-C, n = 36) was 27 (75.0) n (%). For the same compound, the “Minnelide-related AE Overall, ≥Gr 3” value (Total Regimens A-C, n = 36) was 10 (27.8) n (%), the “Minnelide-related AE Pruritus, Any” value (Total Regimens A-C, n = 36) was 1 (2.8)/— n (%) and the “Minnelide-related AE Vomiting, Any” value (Total Regimens A-C, n = 36) was 3 (8.3)/— n (%). For the same compound, the “TRAE Abdominal pain, Any” value (Total Regimens A-C, n = 36) was 16 (44.4) n (%), the “TRAE Abdominal pain, ≥Gr 3” value (Total Regimens A-C, n = 36) was 4 (11.1) n (%) and the “TRAE Alopecia, Any” value (Total Regimens A-C, n = 36) was 2 (5.6)/— n (%). For the same compound, the “TRAE Anemia, Any” value (Total Regimens A-C, n = 36) was 5 (13.9) n (%), the “TRAE Anemia, ≥Gr 3” value (Total Regimens A-C, n = 36) was 3 (8.3) n (%) and the “TRAE Annualar scaly plaques, Any” value (Total Regimens A-C, n = 36) was 1 (2.8)/— n (%). For the same compound, the “TRAE Anorexia, Any” value (Total Regimens A-C, n = 36) was 18 (50.0)/— n (%), the “TRAE Azotemia, Any” value (Total Regimens A-C, n = 36) was 2 (5.6)/— n (%) and the “TRAE Cancer pain, Any” value (Total Regimens A-C, n = 36) was 3 (8.3) n (%). The “TRAE Cancer pain, ≥Gr 3” value (Total Regimens A-C, n = 36) was 1 (2.8) n (%), the “TRAE Cancer progression, Any” value (Total Regimens A-C, n = 36) was 4 (11.1)/4 (11.1) n (%) and the “TRAE Cancer progression, ≥Gr 3” value (Total Regimens A-C, n = 36) was 4 (11.1)/4 (11.1) n (%). For the same compound, the “TRAE Constipation, Any” value (Total Regimens A-C, n = 36) was 3 (8.3)/— n (%), the “TRAE Decreased vision, Any” value (Total Regimens A-C, n = 36) was 1 (2.8)/— n (%) and the “TRAE Depression, Any” value (Total Regimens A-C, n = 36) was 1 (2.8)/— n (%). The “TRAE Dyspepsia, Any” value (Total Regimens A-C, n = 36) was 2 (5.6)/— n (%), the “TRAE Dysuria, Any” value (Total Regimens A-C, n = 36) was 1 (2.8)/— n (%) and the “TRAE Edema, Any” value (Total Regimens A-C, n = 36) was 1 (2.8)/— n (%). For the same compound, the “TRAE Fatigue, Any” value (Total Regimens A-C, n = 36) was 7 (19.4)/— n (%), the “TRAE Gastric stenosis, Any” value (Total Regimens A-C, n = 36) was 1 (2.8)/1 (2.8) n (%) and the “TRAE Gastric stenosis, ≥Gr 3” value (Total Regimens A-C, n = 36) was 1 (2.8)/1 (2.8) n (%). For the same compound, the “TRAE General weakness, Any” value (Total Regimens A-C, n = 36) was 2 (5.6)/— n (%), the “TRAE Headache, Any” value (Total Regimens A-C, n = 36) was 1 (2.8)/— n (%) and the “TRAE Hypercalcemia, Any” value (Total Regimens A-C, n = 36) was 1 (2.8)/1 (2.8) n (%). For the same compound, the “TRAE Hypercalcemia, ≥Gr 3” value (Total Regimens A-C, n = 36) was 1 (2.8)/1 (2.8) n (%), the “TRAE Hypophosphatemi, Any” value (Total Regimens A-C, n = 36) was 1 (2.8)/1 (2.8) n (%) and the “TRAE Hypophosphatemi, ≥Gr 3” value (Total Regimens A-C, n = 36) was 1 (2.8)/1 (2.8) n (%). For the same compound, the “TRAE Jaundice, Any” value (Total Regimens A-C, n = 36) was 1 (2.8)/1 (2.8) n (%), the “TRAE Jaundice, ≥Gr 3” value (Total Regimens A-C, n = 36) was 1 (2.8)/1 (2.8) n (%) and the “TRAE Mucositis, Any” value (Total Regimens A-C, n = 36) was 1 (2.8)/— n (%). For the same compound, the “TRAE Nausea, Any” value (Total Regimens A-C, n = 36) was 12 (33.3) n (%), the “TRAE Nausea, ≥Gr 3” value (Total Regimens A-C, n = 36) was 2(5.6) n (%) and the “TRAE Neutropenia, Any” value (Total Regimens A-C, n = 36) was 11 (30.6) n (%). The “TRAE Neutropenia, ≥Gr 3” value (Total Regimens A-C, n = 36) was 7 (19.4) n (%), the “TRAE Overall, Any” value (Total Regimens A-C, n = 36) was 34 (94.4) n (%) and the “TRAE Overall, ≥Gr 3” value (Total Regimens A-C, n = 36) was 16 (44.4) n (%). The “TRAE Pruritus, Any” value (Total Regimens A-C, n = 36) was 1 (2.8)/— n (%), the “TRAE Rash, Any” value (Total Regimens A-C, n = 36) was 1 (2.8)/— n (%) and the “TRAE Sore throat, Any” value (Total Regimens A-C, n = 36) was 1 (2.8)/— n (%). For the same compound, the “TRAE Tachycardia, Any” value (Total Regimens A-C, n = 36) was 2 (5.6)/— n (%), the “TRAE Tuberculosis, Any” value (Total Regimens A-C, n = 36) was 1 (2.8)/— n (%) and the “TRAE Urinary tract infection, Any” value (Total Regimens A-C, n = 36) was 2 (5.6)/— n (%). The “TRAE Vomiting, Any” value (Total Regimens A-C, n = 36) was 5 (13.9) n (%), the “TRAE Vomiting, ≥Gr 3” value (Total Regimens A-C, n = 36) was 1 (2.8) n (%) and the “TRAE Weight loss, Any” value (Total Regimens A-C, n = 36) was 1 (2.8)/— n (%). The TRAE neutropenia (all regimens, 11/36) was 30.6%, the TRAE nausea (all regimens, 12/36) was 33.3% and the TRAE abdominal pain (all regimens, 16/36) was 44.4%. The “TRAEs above Grade 3, share of patients” value (all regimens, 16 patients of 36) was 44.4%, the TRAE anorexia (all regimens, 18/36) was 50% and the “Grade 5 AEs caused by gastric cancer progression, number” value (all regimens, 36 patients) was “four and Four”. For the same compound, the “Grade 3 or higher AE with minnelide prodrug: abdominal pain” value (all regimens, n = 36) was 11.1%, the “Grade 3 or higher AE with minnelide prodrug: nausea” value (all regimens, n = 36) was 5.6% and the “Grade 3 or higher AE with minnelide prodrug: neutropenia” value (all regimens, n = 36) was 19.4%. For the same compound, the “Grade 3 or higher AEs with minnelide prodrug, overall” value (all regimens, n = 36) was 27.8%, the “TRAE above Grade 3: abdominal pain” value (all regimens, n = 36) was 11.1% and the “TRAE above Grade 3: neutropenia” value (all regimens, n = 36) was 19.4%. The “drop in blood counts: resolution after withholding the drug” value (in vivo) was 4 to 8 days, the “Grade ≥3 abdominal pain” value (monotherapy group) was 18.2% and the “Grade ≥3 nausea” value (monotherapy group) was 18.2%. For the same compound, the “Grade ≥3 neutropenia” value (monotherapy group) was 9.1%, the “Grade ≥3 vomiting” value (monotherapy group) was 9.1% and the “maximum tolerated dose (MTD)” value (monotherapy, PO once daily for 21 days every 4 weeks) was 1.25 mg. For the same compound, the “drop in blood counts: onset after start of drug” value (usually seen) was 5 to 7 days.
